Measurements published in ChEMBL document CHEMBL5233247, “Recent advances in DNA gyrase-targeted antimicrobial agents” (Eur J Med Chem, 2020).
Converted amounts (≈) assume the structure as drawn. “And” between values parts separate entries of the source, which are not always exact repeats. Identical values can stand only once.

Legend:
Bacillus subtilis [1] = assay: Antibacterial activity against Bacillus subtilis; format: functional
Salmonella typhimurium = assay: Antibacterial activity against Salmonella typhimurium; format: functional, Salmonella enterica subsp. enterica serovar Typhimurium; conditions: Salmonella enterica
Escherichia coli = assay: Antibacterial activity against Escherichia coli; format: functional
Micrococcus luteus [2] = assay: Antibacterial activity against Micrococcus luteus; format: functional
Bacillus cereus = assay: Antimicrobial activity against Bacillus cereus ATCC 11778 incubated for by the twofold serial agar dilution technique; format: functional
Micrococcus luteus [3] = assay: Antimicrobial activity against Micrococcus luteus ATCC 9341 incubated for by the twofold serial agar dilution technique; format: functional
Staphylococcus aureus [4] = assay: Antimicrobial activity against Staphylococcus aureus ATCC 25923 incubated for by the twofold serial agar dilution technique; format: functional
Staphylococcus aureus [5] = assay: Antimicrobial activity against Staphylococcus aureus ATCC 29213 incubated for by the twofold serial agar dilution technique; format: functional
Bacillus subtilis [6] = assay: Antimicrobial activity against Bacillus subtilis ATCC 6633 incubated for by the twofold serial agar dilution technique; format: functional
Staphylococcus aureus [7] = assay: Antimicrobial activity against Staphylococcus aureus ATCC 6538 incubated for by the twofold serial agar dilution technique; format: functional
Micrococcus luteus [8] = assay: Antimicrobial activity against Micrococcus luteus ATCC 10240 incubated for by the twofold serial agar dilution technique; format: functional
[9] = system: Staphylococcus epidermidis; assay: Antimicrobial activity against Staphylococcus epidermidis ATCC 12228 incubated for by the twofold serial agar dilution technique; format: functional
Staphylococcus aureus [10] = assay: Antimicrobial activity against Staphylococcus aureus ATCC 4163 incubated for by the twofold serial agar dilution technique; format: functional
Staphylococcus aureus [11] = assay: Antimicrobial activity against methicillin-resistant Staphylococcus aureus MTCC 96; format: functional
Enterococcus faecalis [12] = assay: Antimicrobial activity against vancomycin-resistant Enterococcus faecalis assessed as inhibition of bacterial growth by CLSI broth micro plate assay; format: functional
Staphylococcus aureus [13] = assay: Antimicrobial activity against methicillin-resistant Staphylococcus aureus assessed as inhibition of bacterial growth by CLSI broth micro plate assay; format: functional
Staphylococcus aureus [14] = assay: Antimicrobial activity against methicillin-sensitive Staphylococcus aureus assessed as inhibition of bacterial growth by CLSI broth micro plate assay; format: functional
Enterococcus faecalis [15] = assay: Antimicrobial activity against vancomycin-sensitive Enterococcus faecalis assessed as inhibition of bacterial growth by CLSI broth micro plate assay; format: functional
DNA gyrase = DNA gyrase (Staphylococcus aureus, UniProt P0A0K8+P20831); assay: Inhibition of Staphylococcus aureus DNA gyrase assessed as relaxation of pBR322 DNA by supercoiling assay; format: protein-complex assay
Sequence of DNA gyrase (P0A0K8 whole entry): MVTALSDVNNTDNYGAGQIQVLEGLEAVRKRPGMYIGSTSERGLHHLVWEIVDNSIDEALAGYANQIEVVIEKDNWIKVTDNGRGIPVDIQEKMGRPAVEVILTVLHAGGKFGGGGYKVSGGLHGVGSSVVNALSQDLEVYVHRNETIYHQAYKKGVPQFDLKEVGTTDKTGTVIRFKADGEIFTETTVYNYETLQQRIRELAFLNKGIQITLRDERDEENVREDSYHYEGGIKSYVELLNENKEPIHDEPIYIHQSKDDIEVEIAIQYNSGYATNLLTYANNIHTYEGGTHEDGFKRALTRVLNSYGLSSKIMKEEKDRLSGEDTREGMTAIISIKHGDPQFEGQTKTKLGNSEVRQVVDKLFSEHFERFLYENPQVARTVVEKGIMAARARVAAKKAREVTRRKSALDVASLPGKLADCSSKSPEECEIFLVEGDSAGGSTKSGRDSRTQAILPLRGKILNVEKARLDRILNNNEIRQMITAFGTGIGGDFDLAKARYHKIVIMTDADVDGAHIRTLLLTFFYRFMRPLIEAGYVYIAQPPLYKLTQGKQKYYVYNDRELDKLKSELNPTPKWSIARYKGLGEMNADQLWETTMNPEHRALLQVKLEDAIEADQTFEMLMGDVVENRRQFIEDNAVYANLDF
Sequence of DNA gyrase (P20831 whole entry): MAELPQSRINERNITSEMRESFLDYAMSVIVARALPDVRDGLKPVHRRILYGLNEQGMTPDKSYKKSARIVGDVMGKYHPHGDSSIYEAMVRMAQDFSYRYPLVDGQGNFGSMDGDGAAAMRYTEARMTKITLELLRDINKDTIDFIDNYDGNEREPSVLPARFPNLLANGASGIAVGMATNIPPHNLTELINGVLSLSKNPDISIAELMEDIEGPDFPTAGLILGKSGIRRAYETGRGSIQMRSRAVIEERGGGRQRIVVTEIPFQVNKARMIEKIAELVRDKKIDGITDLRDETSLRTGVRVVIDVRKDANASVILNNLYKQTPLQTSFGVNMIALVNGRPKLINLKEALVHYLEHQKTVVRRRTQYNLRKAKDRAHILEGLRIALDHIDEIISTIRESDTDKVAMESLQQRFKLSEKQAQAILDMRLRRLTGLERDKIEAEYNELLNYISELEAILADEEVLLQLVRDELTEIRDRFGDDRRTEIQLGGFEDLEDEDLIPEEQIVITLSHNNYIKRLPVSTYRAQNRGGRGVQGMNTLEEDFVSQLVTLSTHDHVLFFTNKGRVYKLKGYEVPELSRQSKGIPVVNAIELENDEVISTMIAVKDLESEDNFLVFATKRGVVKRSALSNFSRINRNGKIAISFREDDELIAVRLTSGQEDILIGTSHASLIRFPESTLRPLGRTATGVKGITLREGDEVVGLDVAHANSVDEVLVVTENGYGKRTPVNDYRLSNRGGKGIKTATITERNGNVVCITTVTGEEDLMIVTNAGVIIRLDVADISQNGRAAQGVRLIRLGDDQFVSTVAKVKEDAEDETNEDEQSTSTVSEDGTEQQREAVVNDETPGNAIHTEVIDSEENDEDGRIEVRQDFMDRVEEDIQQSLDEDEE

COc1c(NC(=O)c2ccc(NC(=O)c3ccc(NC(=O)[C@H](CC#N)NC(=O)c4ccc(NC(=O)/C(C)=C/c5ccc(C(F)(F)F)cc5)cc4)cc3)c(OC)c2O)ccc(C(=O)O)c1O
MIC (Bacillus subtilis [1]): 0.28 µM (≈ 0.251 µg/mL) | MIC (Salmonella typhimurium): 0.07 µM (≈ 0.0626 µg/mL) | MIC (Escherichia coli): 0.14 µM (≈ 0.125 µg/mL) | MIC (Micrococcus luteus [2]): 0.238 µM and 0.112 µM

S=C(NCCc1c[nH]c2ccccc12)Nc1ccc(Cl)c(Cl)c1
MIC (Bacillus cereus): 6.25 µg/mL (≈ 17.2 µM) | MIC (Micrococcus luteus [3]): 6.25 µg/mL (≈ 17.2 µM) | MIC (Staphylococcus aureus [4]): 6.25 µg/mL (≈ 17.2 µM) | MIC (Staphylococcus aureus [5]): 6.25 µg/mL (≈ 17.2 µM) | MIC (Bacillus subtilis [6]): 12.5 µg/mL (≈ 34.3 µM) | MIC (Staphylococcus aureus [7]): 6.25 µg/mL (≈ 17.2 µM) | MIC (Micrococcus luteus [8]): 6.25 µg/mL (≈ 17.2 µM) | MIC [9]: 12.5 µg/mL (≈ 34.3 µM) | MIC (Staphylococcus aureus [10]): 6.25 µg/mL (≈ 17.2 µM)

Cc1ccc(C(=O)Nc2ccc(NC(=O)CCC(=O)NN)cc2)o1
MIC (Staphylococcus aureus [11]): 18.9 µM (≈ 6.25 µg/mL)

COc1cc2c(cc1OCCCC(=O)Nc1cc(NC(=O)c3ccc4sccc4c3)n(C)c1)N=C[C@@H]1CCCN1C2=O
MIC (Enterococcus faecalis [12]): 0.5 µg/mL (≈ 0.854 µM) | MIC (Staphylococcus aureus [13]): 0.5 µg/mL (≈ 0.854 µM) | MIC (Staphylococcus aureus [14]): 0.5 µg/mL (≈ 0.854 µM) | MIC (Enterococcus faecalis [15]): 0.5 µg/mL (≈ 0.854 µM) | IC50 (DNA gyrase): 1.62 µM
